Non-standard residues stand in square brackets, D forms with d. Residues, ends and D or L forms follow the SMILES beside them. *: point of attachment. Sta = CC(C)C[C@H](N)[C@@H](O)CC(=O)O; Decanoyl = CCCCCCCCCC(=O)*; Isovaleryl = CC(C)CC(=O)*; CH2Cl = ClC*
Experiments:
[1] = test system: latent TGF-β activation in human platelets; assay: TGF-β activation by thrombin-activated human platelets, active and total TGF-β by PAI/L bioassay; format: cell-based; conditions: for latent TGF-β activation: platelets pre-incubated with inhibitor before thrombin stimulation, platelet releasates, FIG. 1 panels A and B
[2] = test system: furin-like enzyme activity; assay: Furin-like enzyme activity in platelet lysates and releasates, fluorogenic furin substrate pyr-RTKR-amc; format: biochemical, human; conditions: hexaarginine 200 μM, dec-RVKR-cmk 150 μM, FIG. 3; for furin-like enzyme activity in cell lysates: hypotonic lysates of activated platelets; for furin-like enzyme activity in releasates: releasates of activated platelets
Procedure: (§1) Platelets collected as described above were resuspended in distilled water and incubated at room temperature for 5 minutes. Lysis was stopped by addition of an equal volume of 2× serum-free DME medium containing 0.2% pyrogen poor bovine serum albumen. The lysate was cleared by centrifugation at 12,000 g for 10 minutes at room temperature before use.
Releasates or hypotonic lysates of activated platelets were assayed using the furin substrate, pyr-RTKR-amc (SEQ ID NO:3) in the absence or presence of the furin inhibitors, hexaarginine (SEQ ID NO: 7) (200 μM) or dec-RVKR-cmk (SEQ ID NO:1) (150 μM). Values were corrected for substrate-independent endogenous fluorescence (control without substrate) as well as for spontaneous substrate hydrolysis (buffer control). Mean values±S.E.M. of 2-3 separate experiments assayed in duplicate are shown.
The presence of furin-like enzyme activity in both hypotonic lysates and releasates of human platelets was analysed using the fluorogenic furin substrate, pyr-RTKR-amc (SEQ ID NO:3). Platelet lysates contained a furin-like enzyme activity, part of which (approximately 12%) was released upon thrombin stimulation. Enzyme activity in cell lysates and releasates was inhibited by dec-RVKR-cmk (SEQ ID NO:1) and hexa-L-arginine (SEQ ID NO: 7) (FIG. 3).

[3] = test system: latent TGF-β activation in human platelets; assay: TGF-β activation by thrombin-activated human platelets, active and total TGF-β by PAI/L bioassay; format: cell-based; conditions: for active TGF-β in releasates: thrombin-stimulated platelets, hexaarginine pre-incubated, dec-RVKR-cmk added, FIG. 2 panel A
Procedure: Peripheral venous blood samples from healthy adult volunteers (aged 21 to 45) were taken into 20-gauge S-Monovettes. EDTA was used to prevent coagulation of the samples. Human platelets were isolated by differential centrifugation according to the following protocol:
Blood samples were centrifuged at 300 g for 10 minutes to produce a supernatant of platelet rich plasma. Platelet rich plasma was then centrifuged at 2,500 g for 15 minutes to produce a pellet of platelets. Platelets were harvested from the pellet and resuspended prior to use.
as §1
Human platelets collected as outlined above were activated by the addition of thrombin (0.1 u/ml for 30 minutes at 37° C.).
Platelets were activated with thrombin in the absence or presence of furin inhibitors. […] Active and total TGF-β in releasates were determined in the PAI/L bioassay. The results are shown in panel A of FIG. 2.

[4] = test system: latent TGF-β activation in platelet-free releasates; assay: TGF-β activation in platelet-free releasates of activated platelets, PAI/L bioassay; format: biochemical, human; conditions: inhibitor added to platelet-free releasates, 30 mm at 37° C.; FIG. 2B
Procedure: In a further experiment, furin inhibitors were added to platelet-free releasates of activated platelets, and activation was allowed to continue in the absence of platelets for […] at 37° C. The results of this experiment are shown in panel B of FIG. 2. Active TGF-β levels in the controls were 77 pg/ml (dec-RVKR-cmk data (SEQ ID NO:1)) and 104 pg/ml (hexaarginine data (SEQ ID NO: 7)). Incubation on ice reduced activation in the controls to approximately 56% (data not shown). Data represent the mean values of three independent experiments assayed in triplicate.

## CC(C)C[C@H](NC(=O)[C@H]1O[C@@H]1C(=O)O)C(=O)NCCCCN=C(N)N [E-64]
[1]
  latent TGF-β activation: ineffective

## O=C[C@@H](O)[C@@H](O)[C@H](O)[C@H](O)COP(=O)(O)O [M6P, mannose-6-phosphate]
[1]
  latent TGF-β activation: not significantly affected

## CC(=O)N[C@@H](CC(C)C)C(=O)N[C@@H](CC(C)C)C(=O)N[C@H](C=O)CCCNC(=N)N [leupeptin]
[1]
  latent TGF-β activation: ineffective

## Cl.NCCc1ccc(S(=O)(=O)F)cc1 [pefabloc]
[1]
  latent TGF-β activation: ineffective

## CC(C)CC(=O)N[C@H](C(=O)N[C@H](C(=O)N[C@@H](CC(C)C)[C@@H](O)CC(=O)N[C@@H](C)C(=O)N[C@@H](CC(C)C)[C@@H](O)CC(=O)O)C(C)C)C(C)C [pepstatin] (Isovaleryl-VV[Sta]A[Sta]-OH)
[1]
  latent TGF-β activation: ineffective

## LSKL peptide: inhibitor specific for TSP-1
[1]
  latent TGF-β activation: not significantly affected

## aprotinin
[1]
  latent TGF-β activation: ineffective

## decanoyl-Arg-Val-Lys-Arg-chloromethyl ketone (Decanoyl-RVKR-CH2Cl) [dec-RVKR-cmk]
[2]
  furin-like enzyme activity in cell lysates: inhibited
  furin-like enzyme activity in releasates: inhibited
[3]; remaining after inhibitor, believed to be activated prematurely during platelet preparation
  residual TGF-β present: 20-30%
[3]
  active TGF-β in releasates: considerably reduces
[4]
  activation in platelet-free releasates: inhibited, in a dose-dependent fashion
[1]; measured in hypotonic lysates, dose-dependent, FIG. 1 panel C
  generation of active TGF-β intracellularly: drastically reduced
[1]; platelet incubation with inhibitor, thrombin stimulation, dose-dependent, FIG. 1 panel C
  generation of active TGF-β in releasates: drastically reduced

## hexa-L-arginine (RRRRRR)
[2]
  furin-like enzyme activity in cell lysates: inhibited
  furin-like enzyme activity in releasates: inhibited
[3]
  active TGF-β in releasates: significantly reduced
[4]
  activation in platelet-free releasates: inhibited, in a dose-dependent fashion

## α1-antitrypsin
[1]
  latent TGF-β activation: ineffective

— patent US7700562B2, “Use of —furin—“convertase” inhibitors in the treatment of fibrosis and scarring” (Renovo Limited, priority 2002, dated 2010)
